Data from ChEMBL document CHEMBL1201862, “PubChem BioAssay data set” (2004).
Active and inactive are the calls of the source.

Experiments:
[1] = target: Lysine-specific demethylase 4A (Homo sapiens, UniProt O75164); assay: inhibition of JMJD2A H3K9me3 demethylation – biochemical, DELFIA europium, cherry-picked samples, selectivity assay for GASC-1 inhibitor project, dose response (AID 488840)
[2] = target: Trypsin (Sus scrofa, UniProt P00761); assay: trypsin protease activity blockade – biochemical, quenched peptide fluorescence, cherry-pick, selectivity assay for Rce1 protease inhibitor project, dose response (AID 488789)
[3] = target: CAAX prenyl protease 1 (Saccharomyces cerevisiae S288c, UniProt P47154); assay: yeast CAAX protease Ste24 inhibition – biochemical, S. cerevisiae, plate reader, cherry-pick, dose response (AID 488815)
[4] = target: T1, CAAX prenyl protease 2 (Homo sapiens, UniProt Q9Y256); assay: inhibition of Ras-converting CAAX protease Rce1 – biochemical, yeast membranes, quenched-peptide fluorescence, cherry-pick, dose response (AID 588849)
T1 sequence (Q9Y256 whole entry): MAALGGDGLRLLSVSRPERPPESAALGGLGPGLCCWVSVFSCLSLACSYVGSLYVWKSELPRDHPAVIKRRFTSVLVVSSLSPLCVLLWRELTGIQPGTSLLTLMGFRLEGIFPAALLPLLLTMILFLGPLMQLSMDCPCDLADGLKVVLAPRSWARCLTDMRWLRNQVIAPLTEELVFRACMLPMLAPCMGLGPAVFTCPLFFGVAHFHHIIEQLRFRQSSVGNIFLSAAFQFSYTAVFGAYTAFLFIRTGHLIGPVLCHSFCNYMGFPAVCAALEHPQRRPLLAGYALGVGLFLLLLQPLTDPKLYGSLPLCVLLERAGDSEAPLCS

[5] = target: Intestinal-type alkaline phosphatase (Mus musculus, UniProt P24822); assay: PubChem AID 488785; assay type: functional
[6] = target: T2, Alkaline phosphatase, tissue-nonspecific isozyme (Homo sapiens, UniProt P05186); assay: TNAP enzyme inhibition by screening hits, dose response, selectivity assay for mouse IAP inhibitor project, biochemical, human TNAP, uHTS hits (AID 488906); assay type: functional
T2 sequence (P05186 whole entry): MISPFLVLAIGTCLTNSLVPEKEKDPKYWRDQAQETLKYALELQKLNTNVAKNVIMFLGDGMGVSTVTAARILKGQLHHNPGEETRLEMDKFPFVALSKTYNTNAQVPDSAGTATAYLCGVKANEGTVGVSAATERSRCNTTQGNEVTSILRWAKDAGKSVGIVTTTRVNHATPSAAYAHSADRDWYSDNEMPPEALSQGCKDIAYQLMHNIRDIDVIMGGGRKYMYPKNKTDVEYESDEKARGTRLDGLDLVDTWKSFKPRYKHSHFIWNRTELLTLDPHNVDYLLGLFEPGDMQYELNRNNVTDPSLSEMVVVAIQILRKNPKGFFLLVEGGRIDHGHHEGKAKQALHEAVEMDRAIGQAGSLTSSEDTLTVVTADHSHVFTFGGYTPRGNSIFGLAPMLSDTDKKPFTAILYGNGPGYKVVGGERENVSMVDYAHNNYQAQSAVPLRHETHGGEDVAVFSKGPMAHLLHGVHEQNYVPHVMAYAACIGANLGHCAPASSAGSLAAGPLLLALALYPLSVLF

[7] = target: Intestinal-type alkaline phosphatase (Homo sapiens, UniProt P09923); assay: inhibition of human intestinal alkaline phosphatase – biochemical, dose response (AID 488876); assay type: functional
[8] = target: Dual specificity tyrosine-phosphorylation-regulated kinase 1A (Rattus norvegicus, UniProt Q63470); assay type: biochemical, Homo sapiens
[9] = target: Long-chain-fatty-acid--AMP ligase FadD28 (Mycobacterium tuberculosis, UniProt P9WQ59); assay: Fluorescence polarization aasay to screen for inhibitors that compete for the binding of FadD28 to a bisubstrate Measured in Biochemical System Using Plate Reader - 2147-01_Inhibitor_Dose_CherryPick_Activity.; assay type: functional, Mycobacterium tuberculosis H37Rv
[10] = target: T3, RNA-binding protein pos-1 (Caenorhabditis elegans, UniProt G5EF15); assay: disruptors of C. elegans POS-1 RNA interaction – biochemical, fluorescence polarization, dose response (AID 1964);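 note: purified POS-1 fused to maltose binding protein made in E. coli; potency of compounds blocking POS-1 binding to fluorescent RNA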
T3 sequence (G5EF15 whole entry): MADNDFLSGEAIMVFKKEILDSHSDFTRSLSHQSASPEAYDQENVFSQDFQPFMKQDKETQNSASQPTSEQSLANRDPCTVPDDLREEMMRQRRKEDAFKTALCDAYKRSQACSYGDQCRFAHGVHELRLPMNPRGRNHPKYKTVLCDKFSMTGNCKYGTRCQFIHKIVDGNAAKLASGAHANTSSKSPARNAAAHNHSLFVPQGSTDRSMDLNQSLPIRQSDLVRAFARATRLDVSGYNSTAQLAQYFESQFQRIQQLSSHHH

[11] = target: T4, Zinc finger protein mex-5 (Caenorhabditis elegans, UniProt Q9XUB2); assay: potency of MEX-5 RNA-binding blockers – biochemical, C. elegans, fluorescence polarization, dose response (AID 1960)
T4 sequence (Q9XUB2 whole entry): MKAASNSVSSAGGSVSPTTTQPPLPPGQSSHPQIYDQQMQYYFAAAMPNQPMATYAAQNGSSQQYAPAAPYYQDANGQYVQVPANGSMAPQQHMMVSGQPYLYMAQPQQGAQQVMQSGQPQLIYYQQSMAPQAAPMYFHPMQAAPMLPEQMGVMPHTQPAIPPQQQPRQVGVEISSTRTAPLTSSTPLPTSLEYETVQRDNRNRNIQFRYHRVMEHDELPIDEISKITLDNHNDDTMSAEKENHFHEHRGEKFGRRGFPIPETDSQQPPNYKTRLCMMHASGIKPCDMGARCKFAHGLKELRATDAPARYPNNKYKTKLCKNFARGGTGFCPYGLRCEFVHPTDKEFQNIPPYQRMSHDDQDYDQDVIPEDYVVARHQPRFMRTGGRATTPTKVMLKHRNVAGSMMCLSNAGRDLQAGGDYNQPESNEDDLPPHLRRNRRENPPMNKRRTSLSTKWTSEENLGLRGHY

Intestinal-type alkaline phosphatase (Mus musculus, UniProt P24822), sequence (P24822 whole entry): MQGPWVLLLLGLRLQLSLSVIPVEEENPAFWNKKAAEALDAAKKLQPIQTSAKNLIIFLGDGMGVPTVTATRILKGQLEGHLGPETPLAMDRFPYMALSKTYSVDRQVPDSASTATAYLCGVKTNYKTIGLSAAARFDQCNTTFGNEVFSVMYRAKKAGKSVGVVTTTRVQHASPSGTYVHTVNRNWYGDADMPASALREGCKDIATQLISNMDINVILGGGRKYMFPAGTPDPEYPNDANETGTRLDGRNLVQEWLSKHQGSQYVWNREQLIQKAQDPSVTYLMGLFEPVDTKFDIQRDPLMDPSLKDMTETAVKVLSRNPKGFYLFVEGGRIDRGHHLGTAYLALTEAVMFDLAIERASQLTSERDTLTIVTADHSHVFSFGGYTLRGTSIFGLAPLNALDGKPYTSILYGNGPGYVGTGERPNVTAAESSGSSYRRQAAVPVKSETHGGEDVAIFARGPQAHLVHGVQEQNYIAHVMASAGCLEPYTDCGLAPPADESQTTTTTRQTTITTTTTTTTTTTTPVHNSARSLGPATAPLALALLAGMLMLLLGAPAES
Intestinal-type alkaline phosphatase (Homo sapiens, UniProt P09923), sequence (P09923 whole entry): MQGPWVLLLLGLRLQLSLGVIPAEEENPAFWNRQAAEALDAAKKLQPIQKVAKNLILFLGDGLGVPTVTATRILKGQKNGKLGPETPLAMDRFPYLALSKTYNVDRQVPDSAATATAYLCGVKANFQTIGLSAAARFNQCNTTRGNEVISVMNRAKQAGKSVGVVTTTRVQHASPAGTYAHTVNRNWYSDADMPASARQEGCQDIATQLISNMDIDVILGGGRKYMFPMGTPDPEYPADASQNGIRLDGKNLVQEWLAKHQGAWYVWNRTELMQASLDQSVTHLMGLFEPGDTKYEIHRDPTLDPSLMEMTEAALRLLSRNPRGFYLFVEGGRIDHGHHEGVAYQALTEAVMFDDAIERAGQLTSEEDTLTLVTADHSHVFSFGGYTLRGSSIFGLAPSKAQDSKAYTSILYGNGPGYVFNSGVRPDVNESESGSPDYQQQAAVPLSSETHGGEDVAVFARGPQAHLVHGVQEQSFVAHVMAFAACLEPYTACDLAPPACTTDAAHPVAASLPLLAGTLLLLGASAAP
Lysine-specific demethylase 4A, sequence (O75164 whole entry): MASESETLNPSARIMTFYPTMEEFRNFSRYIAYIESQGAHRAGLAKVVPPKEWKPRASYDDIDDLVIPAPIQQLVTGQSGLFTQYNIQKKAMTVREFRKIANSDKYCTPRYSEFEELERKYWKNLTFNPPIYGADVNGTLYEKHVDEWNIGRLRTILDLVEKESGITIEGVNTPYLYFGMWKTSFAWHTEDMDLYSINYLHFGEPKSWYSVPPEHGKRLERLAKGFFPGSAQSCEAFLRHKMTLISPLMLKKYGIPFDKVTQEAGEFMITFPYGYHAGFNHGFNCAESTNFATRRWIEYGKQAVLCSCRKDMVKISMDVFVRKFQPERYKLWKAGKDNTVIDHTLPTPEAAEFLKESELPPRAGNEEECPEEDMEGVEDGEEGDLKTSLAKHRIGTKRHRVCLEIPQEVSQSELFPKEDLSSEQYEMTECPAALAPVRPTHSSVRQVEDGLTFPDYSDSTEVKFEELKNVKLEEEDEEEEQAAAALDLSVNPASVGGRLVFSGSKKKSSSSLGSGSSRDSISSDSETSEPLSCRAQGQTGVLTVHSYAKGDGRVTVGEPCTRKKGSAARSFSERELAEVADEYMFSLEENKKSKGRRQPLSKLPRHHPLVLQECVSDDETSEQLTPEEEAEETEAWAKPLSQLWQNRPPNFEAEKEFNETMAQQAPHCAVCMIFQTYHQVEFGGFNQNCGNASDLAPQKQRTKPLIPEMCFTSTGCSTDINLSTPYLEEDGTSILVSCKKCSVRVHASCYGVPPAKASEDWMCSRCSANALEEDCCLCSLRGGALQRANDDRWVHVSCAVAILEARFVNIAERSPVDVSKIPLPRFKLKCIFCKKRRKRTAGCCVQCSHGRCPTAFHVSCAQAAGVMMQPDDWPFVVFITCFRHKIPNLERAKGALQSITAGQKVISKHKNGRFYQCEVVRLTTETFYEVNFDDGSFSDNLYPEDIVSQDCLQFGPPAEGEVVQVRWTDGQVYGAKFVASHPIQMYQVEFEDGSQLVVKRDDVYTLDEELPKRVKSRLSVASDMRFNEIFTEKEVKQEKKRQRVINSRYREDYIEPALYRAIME
Long-chain-fatty-acid--AMP ligase FadD28, sequence (P9WQ59 whole entry, the tested form may be a part): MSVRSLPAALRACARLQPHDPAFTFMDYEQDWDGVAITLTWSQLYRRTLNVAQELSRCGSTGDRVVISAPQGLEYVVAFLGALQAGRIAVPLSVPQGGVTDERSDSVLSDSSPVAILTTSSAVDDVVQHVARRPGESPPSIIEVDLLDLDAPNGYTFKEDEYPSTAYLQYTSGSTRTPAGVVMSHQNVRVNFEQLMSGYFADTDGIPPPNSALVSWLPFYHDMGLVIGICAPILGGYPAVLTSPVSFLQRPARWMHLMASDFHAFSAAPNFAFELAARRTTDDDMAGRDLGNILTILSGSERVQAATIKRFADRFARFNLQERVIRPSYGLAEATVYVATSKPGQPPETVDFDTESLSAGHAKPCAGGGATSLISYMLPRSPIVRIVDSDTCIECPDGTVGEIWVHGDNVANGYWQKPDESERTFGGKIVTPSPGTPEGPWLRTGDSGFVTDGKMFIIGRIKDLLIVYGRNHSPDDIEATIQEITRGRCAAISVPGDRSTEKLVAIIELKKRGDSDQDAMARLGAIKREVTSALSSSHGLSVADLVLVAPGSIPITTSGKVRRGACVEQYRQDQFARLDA
CAAX prenyl protease 1, sequence (P47154 whole entry): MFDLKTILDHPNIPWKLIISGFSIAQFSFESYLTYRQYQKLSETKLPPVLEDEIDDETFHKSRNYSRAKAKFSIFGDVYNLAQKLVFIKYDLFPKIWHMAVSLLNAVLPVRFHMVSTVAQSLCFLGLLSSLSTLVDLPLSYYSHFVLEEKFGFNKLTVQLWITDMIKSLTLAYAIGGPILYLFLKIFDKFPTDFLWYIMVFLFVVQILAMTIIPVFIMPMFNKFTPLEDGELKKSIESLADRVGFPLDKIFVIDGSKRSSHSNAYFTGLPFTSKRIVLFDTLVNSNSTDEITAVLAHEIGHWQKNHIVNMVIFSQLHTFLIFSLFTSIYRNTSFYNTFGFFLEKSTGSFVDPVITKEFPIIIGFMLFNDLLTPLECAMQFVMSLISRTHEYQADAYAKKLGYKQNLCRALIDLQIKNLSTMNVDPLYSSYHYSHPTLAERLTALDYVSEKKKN
Trypsin, sequence (P00761 whole entry): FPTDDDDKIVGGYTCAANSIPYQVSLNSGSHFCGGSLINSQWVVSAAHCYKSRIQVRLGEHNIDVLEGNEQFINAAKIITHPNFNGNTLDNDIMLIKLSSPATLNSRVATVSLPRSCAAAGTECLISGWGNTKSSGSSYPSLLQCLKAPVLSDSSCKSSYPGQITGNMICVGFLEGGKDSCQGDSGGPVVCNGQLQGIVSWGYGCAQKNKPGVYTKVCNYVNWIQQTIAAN

## Cc1ccc(N(CC(=O)N2CCn3c2nc2ccccc23)S(=O)(=O)c2c(C)n[nH]c2C)cc1
[1]
  AC50: 55.7 µM (active)

## CCc1nnc(NC(=O)c2ccc(NS(=O)(=O)c3ccccc3)cc2)s1
[2]
  AC50: 45.1 µM (active)
[3]
  AC50: 7.02 µM (active)
[4]
  AC50: 5.24 µM (active)

## NS(=O)(=O)c1ccc(-c2ccc(/C=C3\NC(=S)NC3=O)o2)cc1
[5]
  IC50: 9.48 µM (active)
[6]
  IC50: 35.3 µM (active)
[7]
  IC50: > 100 µM (inactive)
[8]
  AC50: 18.3 µM (active)
[9]
  AC50: 77.2 µM (active)
[10]
  EC50: 21.7 µM (inconclusive)
[11]
  EC50: 10.8 µM (inconclusive)
